Source: PubChem BioAssay AID1259407 (Chemical Carcinogenesis Research Information System (CCRIS), 2018)
Activity calls are given as the source filed them. No rule for the calls is given here.

Tested on: CCRIS mutagenicity, Ames/micronucleus/aberration tests
Assay: CCRIS mutagenicity studies

Measured: mutagenic call

N#CCc1ccc(Cl)cc1
inactive: Test System: AMES SALMONELLA TYPHIMURIUM, Strain/Indicator: TA98, Metabolic Activation: NONE, Method: PREINCUBATION inactive; negative | Test System: AMES SALMONELLA TYPHIMURIUM, Strain/Indicator: TA98, Metabolic Activation: RAT, LIVER, S-9, PHENOBARBITAL AND BETA-NAPHTHOFLAVONE, Method: PREINCUBATION inactive; negative | Test System: AMES SALMONELLA TYPHIMURIUM, Strain/Indicator: TA100, Metabolic Activation: NONE, Method: PREINCUBATION inactive; negative | Test System: AMES SALMONELLA TYPHIMURIUM, Strain/Indicator: TA100, Metabolic Activation: RAT, LIVER, S-9, PHENOBARBITAL AND BETA-NAPHTHOFLAVONE, Method: PREINCUBATION inactive; negative | Test System: AMES SALMONELLA TYPHIMURIUM, Strain/Indicator: TA102, Metabolic Activation: NONE, Method: PREINCUBATION inactive; negative | Test System: AMES SALMONELLA TYPHIMURIUM, Strain/Indicator: TA102, Metabolic Activation: RAT, LIVER, S-9, SODIUM PHENOBARBITAL AND 5,6-BENZOFLAVONE, Method: PREINCUBATION inactive; negative | Test System: AMES SALMONELLA TYPHIMURIUM, Strain/Indicator: TA104, Metabolic Activation: NONE, Method: PREINCUBATION inactive; negative | Test System: AMES SALMONELLA TYPHIMURIUM, Strain/Indicator: TA104, Metabolic Activation: RAT, LIVER, S-9, SODIUM PHENOBARBITAL AND 5,6-BENZOFLAVONE, Method: PREINCUBATION inactive; negative | Test System: AMES SALMONELLA TYPHIMURIUM, Strain/Indicator: TA1535, Metabolic Activation: NONE, Method: PREINCUBATION inactive; negative | Test System: AMES SALMONELLA TYPHIMURIUM, Strain/Indicator: TA1535, Metabolic Activation: RAT, LIVER, S-9, PHENOBARBITAL AND BETA-NAPHTHOFLAVONE, Method: PREINCUBATION inactive; negative | Test System: AMES SALMONELLA TYPHIMURIUM, Strain/Indicator: TA1537, Metabolic Activation: NONE, Method: PREINCUBATION inactive; negative | Test System: AMES SALMONELLA TYPHIMURIUM, Strain/Indicator: TA1537, Metabolic Activation: RAT, LIVER, S-9, PHENOBARBITAL AND BETA-NAPHTHOFLAVONE, Method: PREINCUBATION inactive; negative | Test System: E. COLI, Strain/Indicator: WP2UVRA/PKM101, Metabolic Activation: NONE, Method: PREINCUBATION inactive; negative | Test System: E. COLI, Strain/Indicator: WP2UVRA/PKM101, Metabolic Activation: RAT, LIVER, S-9, PHENOBARBITAL AND BETA-NAPHTHOFLAVONE, Method: PREINCUBATION inactive; negative | Test System: E. COLI, Strain/Indicator: WP2UVRA, Metabolic Activation: NONE, Method: PREINCUBATION inactive; negative | Test System: E. COLI, Strain/Indicator: WP2UVRA, Metabolic Activation: RAT, LIVER, S-9, PHENOBARBITAL AND BETA-NAPHTHOFLAVONE, Method: PREINCUBATION inactive; negative

CC(=O)Nc1cc2c(cc1OC(=O)c1ccccc1)-c1ccccc1C2
inactive: Test System: AMES SALMONELLA TYPHIMURIUM, Strain/Indicator: TA98, Metabolic Activation: RAT, LIVER, S-9, AROCLOR 1254, Method: STANDARD PLATE inactive; negative
